Test results from the OligoGym collection.
Oligonucleotides are given in HELM: sugar(base)linkage, 5' to 3'; d 2'-deoxyribose, r ribose, m 2'-O-methylribose, p phosphate. ss, as = sense and antisense strand
Further: test concentration or dose not given here.

These substances were tested against Mmp7 (rat) (assay: reporter assay of Huesken 2005). Conditions: siRNA.
For “RNA1{r(U)p.r(U)p.r(A)p.r(C)p.r(C)p.r(U)p.r(U)p.r(C)p.r(A)p.r(C)p.r(G)p.r(A)p.r(C)p.r(U)p.r(C)p.r(U)p.r(A)p.r(A)p.r(A)p.d(T)p.d(T)}|RNA2{r(U)p.r(U)p.r(U)p.r(A)p.r(G)p.r(A)p.r(G)p.r(U)p.r(C)p.r(G)p.r(U)p.r(G)p.r(A)p.r(A)p.r(G)p.r(G)p.r(U)p.r(A)p.r(A)p.d(A)p.d(A)}$$$RNA1{StrandType:ss}|RNA2{StrandType:as}$”, the normalised inhibition (eCFP-eYFP dual reporter) was 131%. For “RNA1{r(U)p.r(G)p.r(G)p.r(C)p.r(C)p.r(C)p.r(U)p.r(G)p.r(C)p.r(C)p.r(A)p.r(C)p.r(U)p.r(G)p.r(U)p.r(C)p.r(C)p.r(C)p.r(A)p.d(T)p.d(T)}|RNA2{r(U)p.r(G)p.r(G)p.r(G)p.r(A)p.r(C)p.r(A)p.r(G)p.r(U)p.r(G)p.r(G)p.r(C)p.r(A)p.r(G)p.r(G)p.r(G)p.r(C)p.r(C)p.r(A)p.d(G)p.d(G)}$$$RNA1{StrandType:ss}|RNA2{StrandType:as}$”, the normalised inhibition (eCFP-eYFP dual reporter) was 93.6%. “RNA1{r(A)p.r(U)p.r(C)p.r(U)p.r(U)p.r(A)p.r(G)p.r(G)p.r(A)p.r(A)p.r(A)p.r(U)p.r(U)p.r(U)p.r(U)p.r(A)p.r(C)p.r(C)p.r(U)p.d(T)p.d(T)}|RNA2{r(A)p.r(G)p.r(G)p.r(U)p.r(A)p.r(A)p.r(A)p.r(A)p.r(U)p.r(U)p.r(U)p.r(C)p.r(C)p.r(U)p.r(A)p.r(A)p.r(G)p.r(A)p.r(U)p.d(A)p.d(A)}$$$RNA1{StrandType:ss}|RNA2{StrandType:as}$” was tested, and the normalised inhibition (eCFP-eYFP dual reporter) was 79.6%. With “RNA1{r(U)p.r(C)p.r(A)p.r(A)p.r(G)p.r(A)p.r(G)p.r(G)p.r(G)p.r(U)p.r(U)p.r(A)p.r(G)p.r(U)p.r(U)p.r(G)p.r(G)p.r(G)p.r(G)p.d(T)p.d(T)}|RNA2{r(C)p.r(C)p.r(C)p.r(C)p.r(A)p.r(A)p.r(C)p.r(U)p.r(A)p.r(A)p.r(C)p.r(C)p.r(C)p.r(U)p.r(C)p.r(U)p.r(U)p.r(G)p.r(A)p.d(A)p.d(G)}$$$RNA1{StrandType:ss}|RNA2{StrandType:as}$” the normalised inhibition (eCFP-eYFP dual reporter) was 40.8%. For “RNA1{r(A)p.r(A)p.r(U)p.r(G)p.r(C)p.r(A)p.r(G)p.r(A)p.r(A)p.r(G)p.r(C)p.r(C)p.r(C)p.r(A)p.r(G)p.r(G)p.r(U)p.r(G)p.r(U)p.d(T)p.d(T)}|RNA2{r(A)p.r(C)p.r(A)p.r(C)p.r(C)p.r(U)p.r(G)p.r(G)p.r(G)p.r(C)p.r(U)p.r(U)p.r(C)p.r(U)p.r(G)p.r(C)p.r(A)p.r(U)p.r(U)p.d(A)p.d(T)}$$$RNA1{StrandType:ss}|RNA2{StrandType:as}$”, the normalised inhibition (eCFP-eYFP dual reporter) was 86.1%. In the case of “RNA1{r(A)p.r(A)p.r(G)p.r(U)p.r(U)p.r(C)p.r(U)p.r(U)p.r(C)p.r(G)p.r(G)p.r(U)p.r(U)p.r(U)p.r(G)p.r(C)p.r(C)p.r(G)p.r(G)p.d(T)p.d(T)}|RNA2{r(C)p.r(C)p.r(G)p.r(G)p.r(C)p.r(A)p.r(A)p.r(A)p.r(C)p.r(C)p.r(G)p.r(A)p.r(A)p.r(G)p.r(A)p.r(A)p.r(C)p.r(U)p.r(U)p.d(C)p.d(T)}$$$RNA1{StrandType:ss}|RNA2{StrandType:as}$”, the normalised inhibition (eCFP-eYFP dual reporter) is reported as 1.8%. Work on “RNA1{r(G)p.r(C)p.r(G)p.r(G)p.r(A)p.r(G)p.r(A)p.r(U)p.r(G)p.r(C)p.r(U)p.r(C)p.r(A)p.r(C)p.r(U)p.r(U)p.r(U)p.r(G)p.r(A)p.d(T)p.d(T)}|RNA2{r(U)p.r(C)p.r(A)p.r(A)p.r(A)p.r(G)p.r(U)p.r(G)p.r(A)p.r(G)p.r(C)p.r(A)p.r(U)p.r(C)p.r(U)p.r(C)p.r(C)p.r(G)p.r(C)p.d(C)p.d(G)}$$$RNA1{StrandType:ss}|RNA2{StrandType:as}$” yielded a normalised inhibition (eCFP-eYFP dual reporter) of 108%. Substance “RNA1{r(A)p.r(U)p.r(G)p.r(U)p.r(U)p.r(G)p.r(C)p.r(A)p.r(G)p.r(A)p.r(A)p.r(U)p.r(U)p.r(C)p.r(U)p.r(C)p.r(A)p.r(C)p.r(U)p.d(T)p.d(T)}|RNA2{r(A)p.r(G)p.r(U)p.r(G)p.r(A)p.r(G)p.r(A)p.r(A)p.r(U)p.r(U)p.r(C)p.r(U)p.r(G)p.r(C)p.r(A)p.r(A)p.r(C)p.r(A)p.r(U)p.d(C)p.d(T)}$$$RNA1{StrandType:ss}|RNA2{StrandType:as}$” has a normalised inhibition (eCFP-eYFP dual reporter) of 80.2%. “RNA1{r(U)p.r(G)p.r(U)p.r(G)p.r(A)p.r(U)p.r(G)p.r(U)p.r(A)p.r(C)p.r(C)p.r(C)p.r(U)p.r(A)p.r(C)p.r(C)p.r(U)p.r(A)p.r(U)p.d(T)p.d(T)}|RNA2{r(A)p.r(U)p.r(A)p.r(G)p.r(G)p.r(U)p.r(A)p.r(G)p.r(G)p.r(G)p.r(U)p.r(A)p.r(C)p.r(A)p.r(U)p.r(C)p.r(A)p.r(C)p.r(A)p.d(G)p.d(A)}$$$RNA1{StrandType:ss}|RNA2{StrandType:as}$” gave a normalised inhibition (eCFP-eYFP dual reporter) of 107%. For “RNA1{r(A)p.r(G)p.r(G)p.r(C)p.r(G)p.r(C)p.r(A)p.r(G)p.r(A)p.r(A)p.r(U)p.r(U)p.r(A)p.r(U)p.r(C)p.r(U)p.r(U)p.r(A)p.r(G)p.d(T)p.d(T)}|RNA2{r(C)p.r(U)p.r(A)p.r(A)p.r(G)p.r(A)p.r(U)p.r(A)p.r(A)p.r(U)p.r(U)p.r(C)p.r(U)p.r(G)p.r(C)p.r(G)p.r(C)p.r(C)p.r(U)p.d(G)p.d(T)}$$$RNA1{StrandType:ss}|RNA2{StrandType:as}$”, the normalised inhibition (eCFP-eYFP dual reporter) was 66%. Work on “RNA1{r(A)p.r(U)p.r(U)p.r(U)p.r(G)p.r(A)p.r(U)p.r(G)p.r(G)p.r(G)p.r(C)p.r(C)p.r(A)p.r(G)p.r(G)p.r(A)p.r(A)p.r(A)p.r(C)p.d(T)p.d(T)}|RNA2{r(G)p.r(U)p.r(U)p.r(U)p.r(C)p.r(C)p.r(U)p.r(G)p.r(G)p.r(C)p.r(C)p.r(C)p.r(A)p.r(U)p.r(C)p.r(A)p.r(A)p.r(A)p.r(U)p.d(G)p.d(G)}$$$RNA1{StrandType:ss}|RNA2{StrandType:as}$” yielded a normalised inhibition (eCFP-eYFP dual reporter) of 10.5%. With “RNA1{r(A)p.r(A)p.r(A)p.r(C)p.r(U)p.r(G)p.r(A)p.r(G)p.r(G)p.r(G)p.r(A)p.r(A)p.r(A)p.r(U)p.r(G)p.r(C)p.r(A)p.r(G)p.r(A)p.d(T)p.d(T)}|RNA2{r(U)p.r(C)p.r(U)p.r(G)p.r(C)p.r(A)p.r(U)p.r(U)p.r(U)p.r(C)p.r(C)p.r(C)p.r(U)p.r(C)p.r(A)p.r(G)p.r(U)p.r(U)p.r(U)p.d(G)p.d(T)}$$$RNA1{StrandType:ss}|RNA2{StrandType:as}$” the normalised inhibition (eCFP-eYFP dual reporter) was 116%. “RNA1{r(G)p.r(C)p.r(C)p.r(U)p.r(C)p.r(G)p.r(G)p.r(C)p.r(G)p.r(G)p.r(A)p.r(G)p.r(A)p.r(U)p.r(G)p.r(C)p.r(U)p.r(C)p.r(A)p.d(T)p.d(T)}|RNA2{r(U)p.r(G)p.r(A)p.r(G)p.r(C)p.r(A)p.r(U)p.r(C)p.r(U)p.r(C)p.r(C)p.r(G)p.r(C)p.r(C)p.r(G)p.r(A)p.r(G)p.r(G)p.r(C)p.d(C)p.d(T)}$$$RNA1{StrandType:ss}|RNA2{StrandType:as}$” gave a normalised inhibition (eCFP-eYFP dual reporter) of 90.2%. “RNA1{r(C)p.r(U)p.r(G)p.r(G)p.r(G)p.r(U)p.r(C)p.r(U)p.r(G)p.r(G)p.r(G)p.r(U)p.r(C)p.r(A)p.r(C)p.r(U)p.r(C)p.r(U)p.r(U)p.d(T)p.d(T)}|RNA2{r(A)p.r(A)p.r(G)p.r(A)p.r(G)p.r(U)p.r(G)p.r(A)p.r(C)p.r(C)p.r(C)p.r(A)p.r(G)p.r(A)p.r(C)p.r(C)p.r(C)p.r(A)p.r(G)p.d(A)p.d(G)}$$$RNA1{StrandType:ss}|RNA2{StrandType:as}$” showed a normalised inhibition (eCFP-eYFP dual reporter) of 87.6%. “RNA1{r(A)p.r(U)p.r(G)p.r(A)p.r(G)p.r(U)p.r(A)p.r(C)p.r(U)p.r(G)p.r(G)p.r(A)p.r(C)p.r(G)p.r(G)p.r(A)p.r(U)p.r(G)p.r(G)p.d(T)p.d(T)}|RNA2{r(C)p.r(C)p.r(A)p.r(U)p.r(C)p.r(C)p.r(G)p.r(U)p.r(C)p.r(C)p.r(A)p.r(G)p.r(U)p.r(A)p.r(C)p.r(U)p.r(C)p.r(A)p.r(U)p.d(C)p.d(C)}$$$RNA1{StrandType:ss}|RNA2{StrandType:as}$” showed a normalised inhibition (eCFP-eYFP dual reporter) of 41.9%. In the case of “RNA1{r(A)p.r(G)p.r(G)p.r(C)p.r(G)p.r(U)p.r(G)p.r(A)p.r(A)p.r(C)p.r(U)p.r(U)p.r(C)p.r(C)p.r(U)p.r(G)p.r(U)p.r(U)p.r(U)p.d(T)p.d(T)}|RNA2{r(A)p.r(A)p.r(A)p.r(C)p.r(A)p.r(G)p.r(G)p.r(A)p.r(A)p.r(G)p.r(U)p.r(U)p.r(C)p.r(A)p.r(C)p.r(G)p.r(C)p.r(C)p.r(U)p.d(G)p.d(A)}$$$RNA1{StrandType:ss}|RNA2{StrandType:as}$”, the normalised inhibition (eCFP-eYFP dual reporter) is reported as 91.1%. Work on “RNA1{r(U)p.r(A)p.r(C)p.r(C)p.r(U)p.r(U)p.r(C)p.r(A)p.r(C)p.r(G)p.r(A)p.r(C)p.r(U)p.r(C)p.r(U)p.r(A)p.r(A)p.r(A)p.r(A)p.d(T)p.d(T)}|RNA2{r(U)p.r(U)p.r(U)p.r(U)p.r(A)p.r(G)p.r(A)p.r(G)p.r(U)p.r(C)p.r(G)p.r(U)p.r(G)p.r(A)p.r(A)p.r(G)p.r(G)p.r(U)p.r(A)p.d(A)p.d(A)}$$$RNA1{StrandType:ss}|RNA2{StrandType:as}$” yielded a normalised inhibition (eCFP-eYFP dual reporter) of 110%. For “RNA1{r(U)p.r(G)p.r(G)p.r(A)p.r(G)p.r(U)p.r(G)p.r(C)p.r(C)p.r(A)p.r(G)p.r(A)p.r(U)p.r(G)p.r(U)p.r(U)p.r(G)p.r(C)p.r(A)p.d(T)p.d(T)}|RNA2{r(U)p.r(G)p.r(C)p.r(A)p.r(A)p.r(C)p.r(A)p.r(U)p.r(C)p.r(U)p.r(G)p.r(G)p.r(C)p.r(A)p.r(C)p.r(U)p.r(C)p.r(C)p.r(A)p.d(C)p.d(A)}$$$RNA1{StrandType:ss}|RNA2{StrandType:as}$”, the normalised inhibition (eCFP-eYFP dual reporter) was 91.3%. Work on “RNA1{r(G)p.r(U)p.r(G)p.r(A)p.r(G)p.r(G)p.r(A)p.r(C)p.r(U)p.r(C)p.r(A)p.r(G)p.r(G)p.r(C)p.r(G)p.r(U)p.r(G)p.r(A)p.r(A)p.d(T)p.d(T)}|RNA2{r(U)p.r(U)p.r(C)p.r(A)p.r(C)p.r(G)p.r(C)p.r(C)p.r(U)p.r(G)p.r(A)p.r(G)p.r(U)p.r(C)p.r(C)p.r(U)p.r(C)p.r(A)p.r(C)p.d(C)p.d(A)}$$$RNA1{StrandType:ss}|RNA2{StrandType:as}$” yielded a normalised inhibition (eCFP-eYFP dual reporter) of 89.4%. “RNA1{r(A)p.r(A)p.r(A)p.r(A)p.r(C)p.r(A)p.r(A)p.r(A)p.r(G)p.r(A)p.r(A)p.r(G)p.r(G)p.r(C)p.r(C)p.r(A)p.r(C)p.r(C)p.r(A)p.d(T)p.d(T)}|RNA2{r(U)p.r(G)p.r(G)p.r(U)p.r(G)p.r(G)p.r(C)p.r(C)p.r(U)p.r(U)p.r(C)p.r(U)p.r(U)p.r(U)p.r(G)p.r(U)p.r(U)p.r(U)p.r(U)p.d(A)p.d(G)}$$$RNA1{StrandType:ss}|RNA2{StrandType:as}$” was tested, and the normalised inhibition (eCFP-eYFP dual reporter) was 45.7%.
